According to paper PMC11671526, “β-caryophyllene sensitizes hepatocellular carcinoma cells to chemotherapeutics and inhibits cell malignancy through targeting MAPK signaling pathway” (Frontiers in Pharmacology, 2024):

Tests used:
HepG2 cells [1] = experiment: Transwell migration assay; assay type: cell-based; conditions: Homo sapiens, 48 h, vs ethanol control, read-out: inhibition of cell migration
Procedure: (§1) The transwell migration and invasion experiments were conducted using a 24-well plate (cat# 3422, Corning). HepG2 and SMMC-7721 cells (5 × 10^4) were suspended in 100 µL of medium supplied with ethanol, 150 and 300 µM of BCP and added to the top chamber, while 600 µL of complete medium containing 10% FBS was added into the lower chamber. After 48 h of incubation at 37°C, the cells from the top chamber were carefully removed using a cotton swab, while the cells penetrated through the membrane were fixed using 600 µL of 70% methanol for 15 min. To stain the cells, 600 µL of 0.2% crystal violet was used to treat the Transwell inserts for 10 min, followed by washing and drying, and the membranes of the inserts were photographed using an inverted microscope (Leica DM13000 B). The positive staining area was calculated using ImageJ software.

SMMC-7721 cells [2] = experiment: Matrigel transwell invasion assay; assay type: cell-based, human; conditions: 48 h, vs control
Procedure: as §1
(§2) For invasion assay, Matrigel (Corning, cat# 356234) was used to precoat the top chamber. Cells (8 × 10^4) were added to the top chamber and the following procedure was the same as the migration assay described above.

HepG2 cells [3] = experiment: Matrigel transwell invasion assay; assay type: cell-based, human; conditions: 48 h, vs control
Procedure: as §1, §2

HepG2 cells [4] = experiment: RT-qPCR of MAPK signaling pathway genes; assay type: cell-based, human; conditions: BCP-treated HepG2 cells vs control cells
Procedure: HepG2 cells were treated by 150 µM BCP or ethanol for 24 h, followed by total RNA extraction using the TRIzol reagent (Thermo Fisher Scientific, cat#15596026). The quality and concentration of RNA were examined by MOPS RNA electrophoresis and Eppendorf BioSpectrometer. The transcriptome analysis was performed by BGI-Wuhan China. The RNA-seq dataset of this study is accessible in the Gene Expression Omnibus (GEO) with an access number of GSE276099. The sequence library for each sample was prepared using the BGISEQ-500 platform with a 50-bp single-end (SE50) format. HISAT (v2.2.1) was used to align the clean reads to the reference genome and alignment of the clean reads to the reference genes was carried out using Bowtie2 (v2.4.5) ([Langmead and Salzberg, 2012]; [Kim et al., 2015]). Gene expression levels were calculated by RSEM (v1.3.1) ([Li and Dewey, 2011]). Analysis of differential gene expression was performed using edgeR in the Bioconductor software package ([Robinson et al., 2010]). Using a standard protocol, the RNA samples were also examined by reverse transcription and quantitative polymerase chain reaction (RT-qPCR). In brief, for reverse transcription, total RNA (1 μg) and gDNA wiper Mix were incubated at 42°C for 2 min. The samples were immediately incubated with a master mix containing 10 pmol/μL of poly (dT) primers at 37°C for 15 min and 85°C for 5 s. […]

SMMC-7721 cells [5] = experiment: Transwell migration assay; assay type: cell-based, human; conditions: 48 h, vs ethanol control
Procedure: as §1

Compound: C=C1CC/C=C(\C)CC[C@@H]2[C@@H]1CC2(C)C [BCP, β-caryophyllene]
- inhibition at 150 µM (HepG2 cells [1]; HepG2, 150 µM): 49%
- inhibition at 300 µM (HepG2 cells [1]; HepG2, 300 µM): 75.6%
- decrease of Matrigel infiltration (invasion) (SMMC-7721 cells [2]; SMMC-7721, 150 µM): 17.67%
- decrease of Matrigel infiltration (invasion) (SMMC-7721 cells [2]; SMMC-7721, 300 µM): 49.64%
- decrease of Matrigel infiltration (invasion) (HepG2 cells [3]; HepG2, 150 µM): 46.3%
- decrease of Matrigel infiltration (invasion) (HepG2 cells [3]; HepG2, 300 µM): 70.03%
- RT-qPCR verification of differential expression of NR4A1, CSF1R, PGF, ARTN, CACNA1E (HepG2 cells [4]): confirmed
- reduction of cell migration (SMMC-7721 cells [5]; SMMC-7721, 150 µM): 18.06%
- reduction of cell migration (SMMC-7721 cells [5]; SMMC-7721, 300 µM): 52.19%
